# Measured values taken from ChEMBL document CHEMBL3132769, “Fragment growing to retain or alter the selectivity of anchored kinase hinge-binding fragments” (Medchemcomm, 2014).
# What was measured:
# [1] = target: T1, Serine/threonine-protein kinase D1 (Homo sapiens) (UniProt Q15139); assay: Inhibition of human full length PKD1 expressed in baculovirus assessed as substrate phosphorylation using fluorescence-labelled peptides as substrate at 0.06 uM after 90 mins by microfluidic peptide phosphorylation assay
# T1 sequence (whole entry): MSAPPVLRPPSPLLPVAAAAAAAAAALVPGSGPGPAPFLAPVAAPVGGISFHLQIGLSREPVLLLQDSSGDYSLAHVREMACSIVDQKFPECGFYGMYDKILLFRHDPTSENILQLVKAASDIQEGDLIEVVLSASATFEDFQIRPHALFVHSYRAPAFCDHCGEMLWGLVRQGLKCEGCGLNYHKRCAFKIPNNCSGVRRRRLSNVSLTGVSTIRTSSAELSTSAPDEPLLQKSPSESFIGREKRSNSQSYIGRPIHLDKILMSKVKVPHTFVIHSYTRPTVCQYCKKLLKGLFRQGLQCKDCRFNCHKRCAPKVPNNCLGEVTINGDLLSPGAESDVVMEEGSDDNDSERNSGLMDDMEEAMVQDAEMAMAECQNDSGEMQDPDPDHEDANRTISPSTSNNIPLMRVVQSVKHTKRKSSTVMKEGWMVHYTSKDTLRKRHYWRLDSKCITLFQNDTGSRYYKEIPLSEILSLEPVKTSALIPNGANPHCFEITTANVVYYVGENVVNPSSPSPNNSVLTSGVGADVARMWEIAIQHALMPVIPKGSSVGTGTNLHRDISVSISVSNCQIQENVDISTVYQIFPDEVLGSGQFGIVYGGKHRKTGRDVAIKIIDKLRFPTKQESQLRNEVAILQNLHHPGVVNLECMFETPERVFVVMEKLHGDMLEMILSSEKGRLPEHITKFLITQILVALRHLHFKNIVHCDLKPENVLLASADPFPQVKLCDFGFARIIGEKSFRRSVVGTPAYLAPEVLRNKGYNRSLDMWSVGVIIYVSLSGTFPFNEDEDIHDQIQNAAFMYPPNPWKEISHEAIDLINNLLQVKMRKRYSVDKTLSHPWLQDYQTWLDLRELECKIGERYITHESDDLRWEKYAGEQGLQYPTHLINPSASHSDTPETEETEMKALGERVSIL
# [2] = target: Protein kinase C gamma type (Homo sapiens) (UniProt P05129); assay: Inhibition of human truncated PKC gamma expressed in baculovirus assessed as substrate phosphorylation using fluorescence-labelled peptides as substrate at 70 uM after 90 mins by microfluidic peptide phosphorylation assay
# [3] = target: T2, Testis-specific serine/threonine-protein kinase 2 (Homo sapiens) (UniProt Q96PF2); assay: Inhibition of human full length TSSK2 expressed in baculovirus assessed as substrate phosphorylation using fluorescence-labelled peptides as substrate at 70 uM after 90 mins by microfluidic peptide phosphorylation assay
# T2 sequence (whole entry): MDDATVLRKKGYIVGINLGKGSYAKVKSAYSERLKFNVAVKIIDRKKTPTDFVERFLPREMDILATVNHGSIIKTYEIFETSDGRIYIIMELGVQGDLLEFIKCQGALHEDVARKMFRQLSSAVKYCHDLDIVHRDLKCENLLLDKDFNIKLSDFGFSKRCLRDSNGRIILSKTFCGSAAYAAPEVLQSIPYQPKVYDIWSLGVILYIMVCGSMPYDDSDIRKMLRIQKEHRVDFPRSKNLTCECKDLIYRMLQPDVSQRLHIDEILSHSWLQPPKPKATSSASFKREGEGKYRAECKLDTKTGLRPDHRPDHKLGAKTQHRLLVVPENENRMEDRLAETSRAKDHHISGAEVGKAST
# [4] = target: Platelet-derived growth factor receptor alpha (Homo sapiens) (UniProt P16234); assay: Inhibition of human PDGFR alpha catalytic domain expressed in baculovirus assessed as substrate phosphorylation using fluorescence-labelled peptides as substrate at 0.2 uM after 90 mins by microfluidic peptide phosphorylation assay
# Chain of Platelet-derived growth factor receptor alpha (Homo sapiens) (P16234 whole entry, the tested form may be a part): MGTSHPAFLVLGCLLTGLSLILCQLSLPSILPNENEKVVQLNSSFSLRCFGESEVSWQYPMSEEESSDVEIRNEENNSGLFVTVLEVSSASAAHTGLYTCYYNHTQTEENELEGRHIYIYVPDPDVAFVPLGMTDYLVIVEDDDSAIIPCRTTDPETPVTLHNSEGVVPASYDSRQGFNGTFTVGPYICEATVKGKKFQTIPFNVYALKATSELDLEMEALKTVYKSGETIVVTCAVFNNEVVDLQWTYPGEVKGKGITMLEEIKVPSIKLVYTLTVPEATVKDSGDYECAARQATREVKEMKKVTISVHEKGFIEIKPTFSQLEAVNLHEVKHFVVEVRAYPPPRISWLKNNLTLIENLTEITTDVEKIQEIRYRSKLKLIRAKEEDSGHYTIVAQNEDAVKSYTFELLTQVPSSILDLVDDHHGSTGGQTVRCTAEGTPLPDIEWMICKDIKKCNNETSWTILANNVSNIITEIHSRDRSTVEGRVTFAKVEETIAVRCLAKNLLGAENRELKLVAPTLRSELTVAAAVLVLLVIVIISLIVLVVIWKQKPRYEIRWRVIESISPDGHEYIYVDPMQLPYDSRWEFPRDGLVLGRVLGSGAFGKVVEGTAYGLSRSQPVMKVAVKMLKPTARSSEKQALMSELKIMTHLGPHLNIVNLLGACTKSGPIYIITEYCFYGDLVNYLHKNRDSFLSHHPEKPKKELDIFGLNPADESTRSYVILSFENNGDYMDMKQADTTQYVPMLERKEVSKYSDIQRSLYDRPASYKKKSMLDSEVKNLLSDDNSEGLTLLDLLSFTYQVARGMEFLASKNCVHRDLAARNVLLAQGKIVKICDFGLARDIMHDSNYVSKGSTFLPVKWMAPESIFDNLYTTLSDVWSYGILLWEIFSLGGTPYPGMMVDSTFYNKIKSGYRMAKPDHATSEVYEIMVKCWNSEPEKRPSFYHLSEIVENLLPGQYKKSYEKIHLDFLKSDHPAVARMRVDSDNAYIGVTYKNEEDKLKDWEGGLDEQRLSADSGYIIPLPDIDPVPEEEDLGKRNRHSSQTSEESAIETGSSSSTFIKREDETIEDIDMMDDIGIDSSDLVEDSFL
# [5] = target: Tyrosine-protein kinase Lyn (Homo sapiens) (UniProt P07948); assay: Inhibition of human full length LYN expressed in baculovirus assessed as substrate phosphorylation using fluorescence-labelled peptides as substrate at 0.2 uM after 90 mins by microfluidic peptide phosphorylation assay
# Chain of Tyrosine-protein kinase Lyn (Homo sapiens) (P07948 2-512 limits assumed): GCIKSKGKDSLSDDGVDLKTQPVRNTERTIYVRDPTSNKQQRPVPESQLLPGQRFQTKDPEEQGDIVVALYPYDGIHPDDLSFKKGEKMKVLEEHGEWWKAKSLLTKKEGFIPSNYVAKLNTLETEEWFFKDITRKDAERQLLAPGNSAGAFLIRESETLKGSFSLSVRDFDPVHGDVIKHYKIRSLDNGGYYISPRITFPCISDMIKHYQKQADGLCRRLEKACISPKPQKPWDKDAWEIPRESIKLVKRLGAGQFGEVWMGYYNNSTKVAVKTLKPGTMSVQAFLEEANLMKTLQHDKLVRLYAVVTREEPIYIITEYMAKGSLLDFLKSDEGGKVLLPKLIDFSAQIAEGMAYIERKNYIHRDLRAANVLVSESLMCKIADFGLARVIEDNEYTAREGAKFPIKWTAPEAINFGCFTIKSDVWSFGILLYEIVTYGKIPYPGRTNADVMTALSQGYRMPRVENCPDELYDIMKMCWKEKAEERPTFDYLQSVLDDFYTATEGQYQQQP
# [6] = target: T1, Serine/threonine-protein kinase D1 (Homo sapiens); assay: Inhibition of human full length PKD1 expressed in baculovirus assessed as substrate phosphorylation using fluorescence-labelled peptides as substrate at […] after 90 mins by microfluidic peptide phosphorylation assay
# [7] = target: T3, Aurora kinase C (Homo sapiens) (UniProt Q9UQB9); assay: Inhibition of human full length AurC expressed in baculovirus assessed as substrate phosphorylation using fluorescence-labelled peptides as substrate at 8 uM after 90 mins by microfluidic peptide phosphorylation assay
# T3 sequence (whole entry): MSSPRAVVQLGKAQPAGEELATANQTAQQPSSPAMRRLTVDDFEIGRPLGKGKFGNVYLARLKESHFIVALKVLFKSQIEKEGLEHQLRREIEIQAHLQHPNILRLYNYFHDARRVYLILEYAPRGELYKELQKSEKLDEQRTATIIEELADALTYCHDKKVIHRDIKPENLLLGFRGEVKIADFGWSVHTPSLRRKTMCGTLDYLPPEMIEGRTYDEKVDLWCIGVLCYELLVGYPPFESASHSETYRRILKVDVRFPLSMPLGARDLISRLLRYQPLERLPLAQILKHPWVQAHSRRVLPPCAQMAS
# [8] = target: Platelet-derived growth factor receptor alpha (Homo sapiens) (UniProt P16234); assay: Inhibition of human PDGFR alpha catalytic domain expressed in baculovirus assessed as substrate phosphorylation using fluorescence-labelled peptides as substrate at 8 uM after 90 mins by microfluidic peptide phosphorylation assay
compound,measurement,setting,value
NC1(Cc2ccc(Cl)cc2)CCN(c2ncnc3[nH]ccc23)CC1,inhibition,[1],32.5%
CNCc1ccc(-c2ncnc3[nH]cnc23)cc1,inhibition,[2],64%
same,inhibition,[3],10%
Clc1ccc(C2(c3ccc(-c4ncnc5[nH]cnc45)cc3)CCNCC2)cc1,inhibition,[4],0.5%
same,inhibition,[5],18%
COC(=O)c1cnc(Nc2cnc(C#N)cn2)cc1NCC1CCNCC1,inhibition,[6],3%
NCC1CCN(c2ncnc3[nH]ccc23)CC1,inhibition,[7],34%
same,inhibition,[8],0%
